Measurements taken from patent publication US8846933B2, “N-link hydroxamic acid derivatives useful as antibacterial agents” (Pfizer Inc., priority 2009, dated 2014).
Structures can show the parent of a compound that is named as a salt.

Tests used:
Assay type in all cases: cell-based
[1] = test system: Acinetobacter baumanii/haemolyticus: Multidrug-resistant clinical isolate (AB-3167); test: MIC determination (CLSI), strain AB-3167; details: unit assumed
Procedure, shortened: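 Using the multidrug-resistant Acinetobacter baumanii/haemolyticus clinical isolate AB-3167, minimum inhibitory concentrations were determined following CLSI dilution susceptibility standards.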

[2] = test system: Escherichia coli EC-1: VOGEL, mouse virulent; test: MIC determination (CLSI), strain EC-1; details: Escherichia coli EC-1, VOGEL, mouse virulent; unit assumed
Procedure, shortened: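 The mouse-virulent VOGEL isolate of E. coli, EC-1, served as test organism. Minimum inhibitory concentration was measured by CLSI dilution methodology (M7-A7; M100-S18 standards).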

[3] = test system: Pseudomonas aeruginosa UI-18: Wild-type (PA-7); test: MIC determination (CLSI), strain PA-7; details: Pseudomonas aeruginosa UI-18, wild-type; unit assumed
Procedure, shortened: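 Strain tested was P. aeruginosa UI-18, a wild-type isolate labelled PA-7. Minimum inhibitory concentrations followed CLSI dilution methodology for aerobically growing bacteria (M7-A7, M100-S18).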

Row | SMILES | AB-3167 (MIC) [1] [µg/mL] | EC-1 (MIC) [2] [µg/mL] | PA-7 (MIC) [3] [µg/mL]
1 | Cc1c(-c2ccc(-n3nccn3)cc2)ccn(CC[C@](C)(C(=O)NO)S(C)(=O)=O)c1=O [Example 68-J, (2R)-N-hydroxy-2-methyl-4-{3-methyl-2-oxo-4-[4-(2H-1,2,3-triazol-2-yl)phenyl]pyridin-1(2H)-yl}-2-(methylsulfonyl)butanamide] | > 64 | 0.125 | 1
2 | COCCSc1ccc(-c2ccn(CC[C@](C)(C(=O)NO)S(C)(=O)=O)c(=O)c2)cc1 [Example 48, (2R)-N-hydroxy-4-[4-{4-[(2-methoxyethyl)thio]phenyl}-2-oxopyridin-1(2H)-yl]-2-methyl-2-(methylsulfonyl)butanamide] | > 64 | 0.25 | 1
3 | CC(CCn1ccc(-c2ccc(OCCCN3CCC(F)(F)CC3)cc2)cc1=O)(C(=O)NO)S(C)(=O)=O (racemic) [Example 4, (+/−)-4-[4-{4-[3-(4,4-Difluoropiperidin-1-yl)propoxy]phenyl}-2-oxopyridin-1(2H)-yl]-N-hydroxy-2-methyl-2-(methylsulfonyl)butanamide hydrochloride] | > 64 | 1 | 4
4 | CC(CCn1ccc(-c2ccc(OCCCO)cc2)cc1=O)(C(=O)NO)S(C)(=O)=O (stereo not drawn) [Example 30, N-hydroxy-4-{4-[4-(3-hydroxypropoxy)phenyl]-2-oxopyridin-1(2H)-yl}-2-methyl-2-(methylsulfonyl)butanamide] | > 64 | 2 | 4
5 | Cc1ccc(-c2ccn(CC[C@](C)(C(=O)NO)S(C)(=O)=O)c(=O)c2)cc1 [Example 16, (2R)-N-hydroxy-2-methyl-4-[4-(4-methylphenyl)-2-oxopyridin-1(2H)-yl]-2-(methylsulfonyl)butanamide] | > 64 | 0.5 | 0.5
6 | CC(CCn1ccc(-c2ccc3c(c2)CCC(O)C3)cc1=O)(C(=O)NO)S(C)(=O)=O (stereo not drawn) [Example 68-O, N-hydroxy-4-[4-(6-hydroxy-5,6,7,8-tetrahydronaphthalen-2-yl)-2-oxopyridin-1(2H)-yl]-2-methyl-2-(methylsulfonyl)butanamide] | > 64 | 16 | 8
7 | Cc1ncc(-c2ccc(-c3ccn(CC[C@](C)(C(=O)NO)S(C)(=O)=O)c(=O)c3)cc2)cn1 [Example 27, (2R)-N-hydroxy-2-methyl-4-{4-[4-(2-methylpyrimidin-5-yl)phenyl]-2-oxopyridin-1(2H)-yl}-2-(methylsulfonyl)butanamide] | > 64 | 16 | 4
8 | COc1ccc(-c2ccn(CC[C@](C)(C(=O)NO)S(C)(=O)=O)c(=O)c2)c(F)c1F [Example 44, (2R)-4-[4-(2,3-difluoro-4-methoxyphenyl)-2-oxopyridin-1(2H)-yl]-N-hydroxy-2-methyl-2-(methylsulfonyl)butanamide] | > 64 | 0.015 | 1
9 | C[C@@](CCn1ccc(N2CC(c3ccccc3)C2)cc1=O)(C(=O)NO)S(C)(=O)=O [Example 64, (2R)-N-Hydroxy-2-methyl-2-(methylsulfonyl)-4-[2-oxo-4-(3-phenylazetidin-1-yl)pyridin-1(2H)-yl]butanamide] | > 64 | 8 | 8
10 | Cc1nc(-c2ccc(-c3ccn(CC[C@](C)(C(=O)NO)S(C)(=O)=O)c(=O)c3)cc2)co1 [Example 25, (2R)-N-hydroxy-2-methyl-4-{4-[4-(2-methyl-1,3-oxazol-4-yl)phenyl]-2-oxopyridin-1(2H)-yl}-2-(methylsulfonyl)butanamide] | > 64 | 1 | 2
11 | C[C@@](CCn1ccc(/C=C/c2ccccc2)cc1=O)(C(=O)NO)S(C)(=O)=O [Example 2, (2R)-N-hydroxy-2-methyl-2-(methylsulfonyl)-4-{2-oxo-4-[(E)-2-phenylvinyl]pyridin-1(2H)-yl}butanamide] | 64 | 0.5 | 2
12 | CC1(O)CCC(Oc2ccc(-c3ccn(CC[C@](C)(C(=O)NO)S(C)(=O)=O)c(=O)c3)cc2F)CC1 (stereo partly drawn) [Example 10-I, (2R)-4-[4-{3-fluoro-4-[(4-hydroxy-4-methylcyclohexyl)oxy]phenyl}-2-oxopyridin-1(2H)-yl]-N-hydroxy-2-methyl-2-(methylsulfonyl)butanamide] | > 64 | 0.5 | 2
13 | CC(C)(O)CCCOc1ccc(-c2ccn(CCC(C)(C(=O)NO)S(C)(=O)=O)c(=O)c2)cc1 (stereo not drawn) [Example 10-E, N-hydroxy-4-[4-{4-[(4-hydroxy-4-methylpentyl)oxy]phenyl}-2-oxopyridin-1(2H)-yl]-2-methyl-2-(methylsulfonyl)butanamide] | > 64 | 0.5 | 2
14 | CC(=O)c1ccc(-c2ccn(CCC(C)(C(=O)NO)S(C)(=O)=O)c(=O)c2)cc1 (stereo not drawn) [Example 68-V, 4-[4-(4-acetylphenyl)-2-oxopyridin-1(2H)-yl]-N-hydroxy-2-methyl-2-(methylsulfonyl)butanamide] | > 64 | 4 | 4
15 | COc1ccc(COc2ccc(-c3ccn(CC[C@](C)(C(=O)NO)S(C)(=O)=O)c(=O)c3)cc2)cn1 [Example 59, (2R)-N-hydroxy-4-[4-{4-[(6-methoxypyridin-3-yl)methoxy]phenyl}-2-oxopyridin-1(2H)-yl]-2-methyl-2-(methylsulfonyl)butanamide] | > 64 | 0.25 | 1
16 | C[C@@](CCn1ccc(-c2ccc(OC3CCC(O)CC3)cc2)cc1=O)(C(=O)NO)S(C)(=O)=O (stereo partly drawn) [Example 7, (2R)-N-hydroxy-4-[4-{4-[(4-hydroxycyclohexyl)oxy]phenyl}-2-oxopyridin-1(2H)-yl]-2-methyl-2-(methylsulfonyl)butanamide] | 64 | 1 | 2
17 | C[C@@](CCn1ccc(C2=CCCCC2)cc1=O)(C(=O)NO)S(C)(=O)=O [Example 68-K, (2R)-4-(4-cyclohex-1-en-1-yl-2-oxopyridin-1(2H)-yl)-N-hydroxy-2-methyl-2-(methylsulfonyl)butanamide] | > 64 | 4 | 1
